Data as given in US10800792B2, “Inhibitors of Bruton's tyrosine kinase and method of their use” (JANSSEN PHARMACEUTICA NV, priority 2015, dated 2020).

Molecular target: unphosphorylated-BTK kinase domain (UP-BTK), GST-tagged human BTK (389-659aa) (Homo sapiens (Human), UniProt Q06187)
Assay: BTK kinase Lanthascreen binding assay
Conditions: unphosphorylated-BTK kinase domain, 60 minutes incubation, 50 nM Tracer 236; pIC50 = negative log of the IC50 in molar
In short: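 Compound binding to the unphosphorylated kinase domain was monitored by displacement of a fluorescently labelled tracer in a Lanthascreen format. Potency is given as pIC50, the negative log of the molar IC50.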

Chain of unphosphorylated-BTK kinase domain (UP-BTK), GST-tagged human BTK (389-659aa) (Q06187 389-659): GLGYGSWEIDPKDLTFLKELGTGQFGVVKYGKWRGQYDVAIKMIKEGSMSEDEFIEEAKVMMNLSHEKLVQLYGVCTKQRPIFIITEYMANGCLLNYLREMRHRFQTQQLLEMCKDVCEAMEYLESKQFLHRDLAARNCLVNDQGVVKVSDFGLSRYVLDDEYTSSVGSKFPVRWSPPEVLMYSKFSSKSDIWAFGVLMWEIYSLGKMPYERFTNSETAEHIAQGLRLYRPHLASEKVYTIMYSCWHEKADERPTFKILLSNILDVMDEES

Row | Structure (SMILES) | BTK_I_binding pIC50
1 | CNCC(=O)N1CCC[C@@H](NC(=O)c2sc3nccc4c3c2NC(=O)N4c2ccc(OC(C)C)cc2C)C1 [Example 923, (R)-5-(4-Isopropoxy-2-methylphenyl)-N-(1-(2-(methylamino)acetyl)piperidin-3-yl)-4-oxo-4,5-dihydro-3H-1-thia-3,5,8-triazaacenaphthylene-2-carboxamide] | 6.3
2 | CC(=O)N1CC[C@H](NC(=O)c2sc3nccc4c3c2NC(=O)N4c2ccc(Oc3ccccc3)cc2)C1 [Example 924, (S)—N-(1-Acetylpyrrolidin-3-yl)-4-oxo-5-(4-phenoxyphenyl)-4,5-dihydro-3H-1-thia-3,5,8-triazaacenaphthylene-2-carboxamide] | 6.3
3 | O=C(N[C@@H]1CCN(Cc2ccccc2)C1)c1sc2nccc3c2c1NC(=O)N3c1ccc(Oc2ccccc2)cc1 [Example 925, (R)—N-(1-Benzylpyrrolidin-3-yl)-4-oxo-5-(4-phenoxyphenyl)-4,5-dihydro-3H-1-thia-3,5,8-triazaacenaphthylene-2-carboxamide] | 6.3
4 | O=C(NC1CCNCC1)c1sc2nccc3c2c1NC(=O)N3c1ccc(Oc2ccccc2)cc1 [Example 926, 4-oxo-5-(4-phenoxyphenyl)-N-(piperidin-4-yl)-4,5-dihydro-3H-1-thia-3,5,8-triazaacenaphthylene-2-carboxamide] | 6.2
5 | O=C(NCCN1CCCC1)c1sc2nccc3c2c1NC(=O)N3c1ccc(Oc2ccccc2)cc1 [Example 927, 4-Oxo-5-(4-phenoxyphenyl)-N-(2-(pyrrolidin-1-yl)ethyl)-4,5-dihydro-3H-1-thia-3,5,8-triazaacenaphthylene-2-carboxamide] | 6.2
6 | O=C(NCCN1CCNCC1)c1sc2nccc3c2c1NC(=O)N3c1ccc(Oc2ccccc2)cc1 [Example 928, 4-Oxo-5-(4-phenoxyphenyl)-N-(2-(piperazin-1-yl)ethyl)-4,5-dihydro-3H-1-thia-3,5,8-triazaacenaphthylene-2-carboxamide] | 6.2
7 | C=CC(=O)N1CCC(NC(=O)c2sc3nccc4c3c2NC(=O)N4c2ccc(Oc3ccccc3)cc2C)CC1 [Example 929, N-(1-Acryloylpiperidin-4-yl)-5-(2-methyl-4-phenoxyphenyl)-4-oxo-4,5-dihydro-3H-1-thia-3,5,8-triazaacenaphthylene-2-carboxamide] | 6.1
8 | Cc1cc(Oc2ccccc2)ccc1N1C(=O)Nc2c(C(=O)N[C@H]3CCCN(C)C3)sc3nccc1c23 [Example 930, (S)-5-(2-methyl-4-phenoxyphenyl)-N-(1-methylpiperidin-3-yl)-4-oxo-4,5-dihydro-3H-1-thia-3,5,8-triazaacenaphthylene-2-carboxamide] | 6.0
9 | CN1CC[C@H](NC(=O)c2sc3nccc4c3c2NC(=O)N4c2ccc(Oc3ccccc3)cc2)C1 [Example 931, (S)—N-(1-Methylpyrrolidin-3-yl)-4-oxo-5-(4-phenoxyphenyl)-4,5-dihydro-3H-1-thia-3,5,8-triazaacenaphthylene-2-carboxamide] | 6.1
10 | O=C(NCCN1CCCCC1)c1sc2nccc3c2c1NC(=O)N3c1ccc(Oc2ccccc2)cc1 [Example 932, 4-Oxo-5-(4-phenoxyphenyl)-N-(2-(piperidin-1-yl)ethyl)-4,5-dihydro-3H-1-thia-3,5,8-triazaacenaphthylene-2-carboxamide] | 6.1
11 | O=C(NCCN1CCOCC1)c1sc2nccc3c2c1NC(=O)N3c1ccc(Oc2ccccc2)cc1 [Example 933, N-(2-Morpholinoethyl)-4-oxo-5-(4-phenoxyphenyl)-4,5-dihydro-3H-1-thia-3,5,8-triazaacenaphthylene-2-carboxamide] | 6.1
12 | CN1CCN(CCNC(=O)c2sc3nccc4c3c2NC(=O)N4c2ccc(Oc3ccccc3)cc2)CC1 [Example 935, N-(2-(4-Methylpiperazin-1-yl)ethyl)-4-oxo-5-(4-phenoxyphenyl)-4,5-dihydro-3H-1-thia-3,5,8-triazaacenaphthylene-2-carboxamide] | 6.0
13 | CC(=O)N1CCC[C@@H](NC(=O)c2sc3nccc4c3c2NC(=O)N4c2ccc(OC(C)C)cc2C)C1 [Example 936, (R)—N-(1-Acetylpiperidin-3-yl)-5-(4-isopropoxy-2-methylphenyl)-4-oxo-4,5-dihydro-3H-1-thia-3,5,8-triazaacenaphthylene-2-carboxamide] | <6
14 | O=C(N[C@@H]1CCCNC1)c1sc2nccc3c2c1NC(=O)N3c1cccc(-c2cccnc2)c1 [Example 937, (R)-4-Oxo-N-(piperidin-3-yl)-5-(3-(pyridin-3-yl)phenyl)-4,5-dihydro-3H-1-thia-3,5,8-triazaacenaphthylene-2-carboxamide] | 6.0
15 | Cc1ccc(Oc2ccccc2)cc1N1C(=O)Nc2c(C(=O)N[C@H]3CCCN(C(=O)/C(C#N)=C/C4CC4)C3)sc3nccc1c23 [Example 938, (S,E)-N-(1-(2-Cyano-3-cyclopropylacryloyl)piperidin-3-yl)-5-(2-methyl-5-phenoxyphenyl)-4-oxo-4,5-dihydro-3H-1-thia-3,5,8-triazaacenaphthylene-2-carboxamide] | 6.0
16 | N#C/C(=C\C1CC1)C(=O)N1CCC[C@H](NC(=O)c2sc3nccc4c3c2NC(=O)N4c2cccc(Oc3ccccc3)c2)C1 [Example 939, (S,E)-N-(1-(2-Cyano-3-cyclopropylacryloyl)piperidin-3-yl)-4-oxo-5-(3-phenoxyphenyl)-4,5-dihydro-3H-1-thia-3,5,8-triazaacenaphthylene-2-carboxamide] | 6.0
17 | O=C(N[C@H]1CCN(C(=O)c2ccccc2)C1)c1sc2nccc3c2c1NC(=O)N3c1ccc(Oc2ccccc2)cc1 [Example 940, (S)—N-(1-benzoylpyrrolidin-3-yl)-4-oxo-5-(4-phenoxyphenyl)-4,5-dihydro-3H-1-thia-3,5,8-triazaacenaphthylene-2-carboxamide] | 5.9
18 | C=CC(=O)N1CCC[C@@H](NC(=O)c2sc3nccc4c3c2NC(=O)N4c2cc(Cl)cc(Cl)c2)C1 [Example 941, (R)—N-(1-Acryloylpiperidin-3-yl)-5-(3,5-dichlorophenyl)-4-oxo-4,5-dihydro-3H-1-thia-3,5,8-triazaacenaphthylene-2-carboxamide] | 5.8
19 | Cc1ccccc1N1C(=O)Nc2c(C(=O)N[C@H]3CCCN(C(=O)/C(C#N)=C/C4CC4)C3)sc3nccc1c23 [Example 942, (S,E)-N-(1-(2-Cyano-3-cyclopropylacryloyl)piperidin-3-yl)-4-oxo-5-(o-tolyl)-4,5-dihydro-3H-1-thia-3,5,8-triazaacenaphthylene-2-carboxamide] | 5.6
20 | C=CC(=O)N1CCC[C@@H](NC(=O)c2sc3nccc4c3c2NC(=O)N4c2cccc(N(C)C)c2)C1 [Example 943, (R)—N-(1-Acryloylpiperidin-3-yl)-5-(3-(dimethylamino)phenyl)-4-oxo-4,5-dihydro-3H-1-thia-3,5,8-triazaacenaphthylene-2-carboxamide] | 5.6
